The source of these data is US12692253B2, “Antimicrobial compounds and methods” (Curza Global, LLC, priority 2019, dated 2026).

Assay [1] relates to E. coli (Ec). Put plainly: Broth microdilution minimum inhibitory concentration (MIC), CLSI. The format is cell-based. Conditions: Escherichia coli, growth medium with sodium bicarbonate, read-out: E. coli + bicarb MIC. In outline:
(§1)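 CLSI broth microdilution with modification: 8-point two-fold compound dilutions in CAMHB, CAMHB plus 6.25 or 25 mM sodium bicarbonate, or CAMHB plus 0–50% heat-inactivated human serum. Inoculum 5×10^4 CFU/well from log-phase cultures adjusted to 0.5 McFarland; triplicate wells.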
A general note: In broth dilution the organism is exposed to a series of concentrations in liquid medium.

In assay [2] the test system is E. faecalis (Ef). The assay is described as above. The format is cell-based. The note with it: growth medium with sodium bicarbonate; for MIC: Enterococcus faecalis, read-out: Ef + bicarb MIC. The procedure, abridged:
as §1

In assay [3] the test system is P. aeruginosa (Pa). The description is as above. The format is cell-based. Conditions: Pseudomonas aeruginosa, growth medium with sodium bicarbonate, read-out: Pa MIC + bicarb. In outline: as §1
The subject of assay [4] is A. baumannn (Ab). Described as above. The format is cell-based. Conditions: A. baumannn; growth medium with sodium bicarbonate; read-out: Ab + bicarb MIC. In outline: as §1
For assay [5], the system named is S. aureus (Sa). The assay is described as above. The format is cell-based. Conditions: Staphylococcus aureus, growth medium with sodium bicarbonate, read-out: Sa + bicarb MIC. In outline: as §1
The target in assay [6] is Rabbit Reticulocyte Lysate (eukaryotic protein synthesis). Briefly: Rabbit reticulocyte lysate luciferase assay (inhibition of eukaryotic protein synthesis). The format is biochemical. The note with it: % inhibition @ 1 μM, read-out: Rabbit reticulocyte IC50 (μM/% inhib.). The procedure, abridged:
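In vitro translation of luciferase control RNA in nuclease-treated rabbit reticulocyte lysate with amino acid mixture, compounds in 2-fold serial dilution, 90 minutes at 30° C. Luminescence read after luciferase reagent; % inhibition relative to water no-inhibitor controls, with no-RNA background wells.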

The test system of assay [7] is E. coli S30 extract (bacterial protein synthesis). Put plainly: E. coli S30 extract coupled transcription-translation luciferase assay (inhibition of bacterial protein synthesis). The format is biochemical. The note with it: % inhibition @ 1 μM, read-out: S30 IC50 (μM/% inhib.). The procedure, abridged: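 Coupled transcription-translation in E. coli S30 circular-DNA extract expressing luciferase from pBESTluc, with 8-point 2-fold compound dilutions; 1 hour at 37 °C, stopped at 4 °C. Luminescence read; % inhibition versus no-inhibitor wells, no-DNA wells as background.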

Regarding `CCC(Cc1ccc(-n2ccc(NC(=O)N3CCN(C(=O)C(C)(C)N)CC3)nc2=O)cc1)N1C[C@@H]2[C@@H](CNC)[C@@H]2C1` (some centres unmarked) [Compound 221], the MIC (as a rule, the least concentration at which growth counts as inhibited) was less than 8 µg/mL in assay [1]; less than 8 µg/mL in assay [2]; greater than 32 µg/mL in assay [3]; less than 8 µg/mL in assay [4]; less than 8 µg/mL in assay [5]. The IC50 in assay [6] and in assay [7] was no less than 1 µM each time.
Regarding `CC(Cc1ccc(-n2ccc(NC(=O)N3CCN(C(=O)[C@H](C)N)CC3)nc2=O)cc1)N1C[C@@H]2[C@@H](CN)[C@@H]2C1` (some centres unmarked) [Compound 222], the MIC was less than 8 µg/mL in assay [1]; 8 to 32 µg/mL in assay [2]; greater than 32 µg/mL in assay [3]; greater than 32 µg/mL in assay [4]; less than 8 µg/mL in assay [5]. The results for the IC50 in assay [6] and in assay [7] were no less than 1 µM and 0.5 to 1 µM, respectively.
Take `CC(C)[C@H](N)C(=O)N1CCN(C(=O)Nc2ccn(-c3ccc(CC(C)N4C[C@@H]5[C@@H](CN)[C@@H]5C4)cc3)c(=O)n2)CC1` (some centres unmarked) [Compound 223]: the MIC was less than 8 µg/mL in assay [1]; less than 8 µg/mL in assay [2]; greater than 32 µg/mL in assay [3]; greater than 32 µg/mL in assay [4]; less than 8 µg/mL in assay [5]. In addition, the IC50 is no less than 1 µM in assay [6] and less than 0.5 µM in assay [7].
Consider `CCC(N)(CC)C(=O)N1CCN(C(=O)Nc2ccn(-c3ccc(CN4C[C@@H]5[C@@H](N)[C@@H]5C4)cc3)c(=O)n2)CC1` [Compound 224], for which the MIC is less than 8 µg/mL in assay [1]; less than 8 µg/mL in assay [2]; greater than 32 µg/mL in assay [3]; greater than 32 µg/mL in assay [4]; less than 8 µg/mL in assay [5]. Further, the IC50 is no less than 1 µM in assay [6] and less than 0.5 µM in assay [7].
For the compound `CC(Cc1ccc(-n2ccc(NC(=O)N3CCN(C(=O)C(C)(C)N)CC3)nc2=O)cc1)N1CCC2(CC(N)C2)C1` (centres unmarked) [Compound 225], the MIC was less than 8 µg/mL in assay [1], greater than 32 µg/mL in assay [3], greater than 32 µg/mL in assay [4] and less than 8 µg/mL in assay [5]. Moreover, in assay [2], the “Ef + bicarb MIC” value is given as “+++ (An MIC value (μg/mL) that is less than 8 μg/mL)”. Further, the values for the IC50 in assay [6] and in assay [7] were no less than 1 µM and 0.5 to 1 µM, respectively.
Turning to `CC(Cc1ccc(-n2ccc(NC(=O)N3CCN(C(=O)C4(N)CC4)CC3)nc2=O)cc1)N1C[C@@H]2[C@@H](CN)[C@@H]2C1` (some centres unmarked) [Compound 226], the MIC in assay [1], in assay [2], in assay [3], in assay [4] and in assay [5] was greater than 32 µg/mL throughout. The IC50 in assay [6] and in assay [7] was no less than 1 µM throughout.
For the compound `CC(Cc1ccc(-n2ccc(NC(=O)N3CCN(C(=O)CN)CC3)nc2=O)cc1)N1C[C@@H]2[C@@H](CN)[C@@H]2C1` (some centres unmarked) [Compound 227], the MIC was less than 8 µg/mL in assay [1]; less than 8 µg/mL in assay [2]; greater than 32 µg/mL in assay [3]; greater than 32 µg/mL in assay [4]; less than 8 µg/mL in assay [5]. Further, the IC50 in assay [6] was no less than 1 µM; in assay [7], 0.5 to 1 µM.
`CC(Cc1ccc(-n2ccc(NC(=O)N3CCN(C(=O)[C@@H]4CCCN4)CC3)nc2=O)cc1)N1C[C@@H]2[C@@H](CN)[C@@H]2C1` (some centres unmarked) [Compound 228]: the MIC in assay [1] is less than 8 µg/mL; in assay [2], 8 to 32 µg/mL; in assay [3], greater than 32 µg/mL; in assay [4], greater than 32 µg/mL; in assay [5], less than 8 µg/mL. For the same compound, the IC50 in assay [6] and in assay [7] was no less than 1 µM throughout.
For the compound `CC(Cc1ccc(-n2ccc(NC(=O)N3CCN(C(=O)C4(N)CCC4)CC3)nc2=O)cc1)N1C[C@@H]2[C@@H](CN)[C@@H]2C1` (some centres unmarked) [Compound 229], the MIC in assay [1] was 8 to 32 µg/mL; in assay [2] it was greater than 32 µg/mL; in assay [3], greater than 32 µg/mL; in assay [4], greater than 32 µg/mL; in assay [5], greater than 32 µg/mL. Further, the IC50 in assay [6] and in assay [7] was no less than 1 µM throughout.
Turning to `CC(C)[C@@H](N)C(=O)N1CCN(C(=O)Nc2ccn(-c3ccc(CC(C)N4C[C@@H]5[C@@H](CN)[C@@H]5C4)cc3)c(=O)n2)CC1` (some centres unmarked) [Compound 230], the MIC was less than 8 µg/mL in assay [1]; greater than 32 µg/mL in assay [2]; greater than 32 µg/mL in assay [3]; greater than 32 µg/mL in assay [4]; 8 to 32 µg/mL in assay [5]. Besides, the IC50 in assay [6] and in assay [7] was no less than 1 µM in each case.
With `CC(Cc1ccc(-n2ccc(NC(=O)N3CCN(C(=O)C[C@H](C)N)CC3)nc2=O)cc1)N1C[C@@H]2[C@@H](CN)[C@@H]2C1` (some centres unmarked) [Compound 231], the MIC in assay [1] is less than 8 µg/mL; in assay [2], greater than 32 µg/mL; in assay [3], greater than 32 µg/mL; in assay [4], greater than 32 µg/mL; in assay [5], less than 8 µg/mL. In addition, the IC50 in assay [6] and in assay [7] was no less than 1 µM in each case.
Consider `CC(Cc1ccc(-n2ccc(NC(=O)N3CCN(C(=O)[C@H]4C[C@@H](N)C4)CC3)nc2=O)cc1)N1C[C@@H]2[C@@H](CN)[C@@H]2C1` (some centres unmarked) [Compound 232], for which the MIC in assay [1] is less than 8 µg/mL; in assay [2], greater than 32 µg/mL; in assay [3] it was greater than 32 µg/mL; in assay [4], greater than 32 µg/mL; in assay [5] it was less than 8 µg/mL. Also, the IC50 in assay [6] and in assay [7] was no less than 1 µM in each case.
`CC(Cc1ccc(-n2ccc(NC(=O)N3CCN(C(=O)C(C)(C)CN)CC3)nc2=O)cc1)N1C[C@@H]2[C@@H](CN)[C@@H]2C1` (some centres unmarked) [Compound 233]: the minimal inhibitory concentration (MIC) in assay [1] is less than 8 µg/mL; in assay [2], 8 to 32 µg/mL; in assay [3], greater than 32 µg/mL; in assay [4], greater than 32 µg/mL; in assay [5], less than 8 µg/mL. Further, the IC50 in assay [6] and in assay [7] was no less than 1 µM in each case.
With `CC(Cc1ccc(-n2ccc(NC(=O)N3CCN(C(=O)[C@H]4C[C@H](N)C4)CC3)nc2=O)cc1)N1C[C@@H]2[C@@H](CN)[C@@H]2C1` (some centres unmarked) [Compound 234], the MIC in assay [1] was less than 8 µg/mL; in assay [2], greater than 32 µg/mL; in assay [3], greater than 32 µg/mL; in assay [4], greater than 32 µg/mL; in assay [5], less than 8 µg/mL. The IC50 in assay [6] and in assay [7] was no less than 1 µM throughout.
Consider `CC(C)[C@@H](N)CC(=O)N1CCN(C(=O)Nc2ccn(-c3ccc(CC(C)N4C[C@@H]5[C@@H](CN)[C@@H]5C4)cc3)c(=O)n2)CC1` (some centres unmarked) [Compound 235], for which the MIC was less than 8 µg/mL in assay [1]; greater than 32 µg/mL in assay [2]; greater than 32 µg/mL in assay [3]; greater than 32 µg/mL in assay [4]; less than 8 µg/mL in assay [5]. Further, the IC50 in assay [6] and in assay [7] was no less than 1 µM in each case.
In the case of `CNCC(=O)N1CCN(C(=O)Nc2ccn(-c3ccc(CC(C)N4C[C@@H]5[C@@H](CN)[C@@H]5C4)cc3)c(=O)n2)CC1` (some centres unmarked) [Compound 236], the MIC is less than 8 µg/mL in assay [1]; greater than 32 µg/mL in assay [2]; greater than 32 µg/mL in assay [3]; greater than 32 µg/mL in assay [4]; 8 to 32 µg/mL in assay [5]. Further, the IC50 in assay [6] and in assay [7] was no less than 1 µM throughout.
Take `CC(Cc1ccc(-n2ccc(NC(=O)N3CCN(C(=O)C(C)(C)N)CC3)nc2=O)cc1)N1CCC2(CC1)CC2CN` (centres unmarked) [Compound 237]: the MIC is less than 8 µg/mL in assay [1]; greater than 32 µg/mL in assay [2]; greater than 32 µg/mL in assay [3]; greater than 32 µg/mL in assay [4]; greater than 32 µg/mL in assay [5]. Moreover, the IC50 in assay [6] and in assay [7] was no less than 1 µM in each case.
